{
  "source": "paper PMC7609463",
  "about": "(Frontiers in Pharmacology, 2020)",
  "key": {"dengue virus": {"tested_on": "dengue virus", "design": "method as in Constant et al., 2018", "conditions": "ref Constant et al., 2018; read-out: EC50 of inhibiting viral growth; cited from earlier work"}, "viral proteinase NS2B/3": {"target": "viral proteinase NS2B/3", "design": "method as in Constant et al., 2018", "conditions": "ref Constant et al., 2018; read-out: IC50 of enzymatic activity of the viral proteinase; cited from earlier work"}, "ZIKVpro": {"tested_on": "ZIKVpro", "conditions": "2017, read-out: IC50 against ZIKVpro, cited from earlier work"}, "[1]": {"target": "T1, ZIKV NS2B-NS3 protease (ZIKVpro) (Zika virus, UniProt A0A024B7W1)", "T1 construct": "The cDNA coding for residues 45–96 of ZIKV NS2B; the N terminus of NS3 (residues 1–177); poly-histidine tag (C); made in house; host or cells: E. coli BL21(DE3), pET28a (NcoI/XhoI)", "T1 sequence (A0A024B7W1 1417-1468)": "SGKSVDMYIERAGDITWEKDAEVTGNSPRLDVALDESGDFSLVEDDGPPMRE", "T1 sequence (A0A024B7W1 1503-1679)": "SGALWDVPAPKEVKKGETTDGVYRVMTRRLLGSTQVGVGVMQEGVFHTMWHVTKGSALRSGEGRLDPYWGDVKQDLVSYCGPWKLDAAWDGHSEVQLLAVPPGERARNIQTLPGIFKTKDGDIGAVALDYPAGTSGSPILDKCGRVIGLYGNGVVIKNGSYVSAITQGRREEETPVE", "assay": "fluorescence-based ZIKVpro protease inhibition screening assay (Bz-nKKR-AMC substrate)", "assay_type": "biochemical", "conditions": "for IC50: 150 nM ZIKVpro, 1 h preincubation at 37 °C, 50 μM Bz-nKKR-AMC; for inhibition at 20 µM: read-out: Inhibition Activity% (primary high-throughput screening)", "procedure": "For initial screening, each compound was dissolved in dimethyl sulfoxide (DMSO) to obtain 20 mM stock solution. […] The reaction was started by addition of Bz-nKKR-AMC substrate at 50 µM and fluorescence readings were measured at 30 s intervals over 10 min using Enspire (Perkin Elmer, USA) at excitation wavelength(λex) at 360 nm and emission wavelength(λem) at 460 nm. Assays were carried out as triplicates at 37 °C.\nThe protease activity of the DMSO control was set as 100%. The protease activities with compounds were set as percentage of the DMSO control. Data was fitted using the log(inhibitor) vs. response - variable slope (four parameters) model within the graphpad prism 7.0 software.\nInhibition activity=100-[S–S0/C−C0]×100%\nS: the RFUs of the test sample (enzyme, inhibitor, buffer, and substrate) after 10 min of reaction\nS0: the RFUs of the tested samples at time zero.\nC: the RFUs of the control (enzyme, buffer, and substrate) after 10 min of reaction\nC0: the RFUs of the control at time zero"}, "[2]": {"target": "T2, ZIKV NS2B-NS3 protease (ZIKVpro, gZiPro) (Zika virus, UniProt A0A024B7W1)", "T2 construct": "The cDNA coding for residues 45–96 of ZIKV NS2B; the N terminus of NS3 (residues 1–177); poly-histidine tag (C); made in house; host or cells: E. coli BL21(DE3), pET28a (NcoI/XhoI)", "T2 sequence (A0A024B7W1 1417-1468)": "as the sequence (A0A024B7W1 1417-1468) above", "T2 sequence (A0A024B7W1 1503-1679)": "as the sequence (A0A024B7W1 1503-1679) above", "assay": "Octet bio-layer interferometry binding assay with biotinylated ZIKVpro (gZiPro)", "conditions": "for binding to ZIKVpro in Octet assay: compound 50 μM; for Response (Octet binding assay): compound 50 µM, biotinylated ZIKVpro, binding profile as nm shift", "source_text": "Intermolecular interactions between gZiPro and selected compounds were detected by using BLI technology on the ForteBio Octet Red system (Pall FortéBio, Inc, Menlo Park, USA). The biotinylated protein gZipro was immobilized onto super streptavidin biosensors (Pall FortéBio Inc.), and then blocked with biocytin (Sigma). […] Sensorgrams were double-referenced, corrected for solvent effects, and then fit using OctetRed user software (Pall FortéBio Inc.). The binding profile of each sample was summarized as an “nm shift” (the wavelength or spectral shift in nanometers), which represented the difference between the start and end of the kinetic cycle. Steady-state and kinetic responses were fit to a simple binding model to obtain values for association (Kon) and dissociation (Koff) rate constants and the equilibrium dissociation constant (Kd). The Langmuir’s 1:1 binding model was applied to fit the interferometry data."}, "ZIKV [3]": {"tested_on": "ZIKV", "assay": "qRT-PCR of viral RNA in ZIKV-infected Vero E6 cells", "assay_type": "cell-based, Zika virus", "conditions": "dose-dependent", "protocol": "To determine the viral RNA number by qRT-PCR, total intracellular RNAs were extracted from the infected cells (control and treated) by treatment with TRIzol reagent (Invitrogen, USA) according to the manufacturer’s protocol. The cDNA was synthesized using Primescript RT Master Kit (Takara, Japan). Level of viral RNA was determined by performing qRT-PCR analysis using SYBR premix Ex Taq II kit (Takara) according to the instructions. The primer sequences used for the Zika virus genes are 5’-[…]-3’ (forward) and 5’-[…]-3’ (reverse). For quantification, the 2^−ΔΔCt method was used to calculate the relative RNA levels against GAPDH."}, "ZIKV [4]": {"tested_on": "ZIKV", "assay": "western blot of ZIKV NS3 expression in infected Vero E6 cells", "assay_type": "cell-based, Zika virus", "conditions": "dose-dependent", "protocol": "(§1) Vero E6 cells were seeded at a density of 2×10^5 cells per well in 6-well plate. After overnight incubation, 2 µl DMSO (Sigma-Aldrich) or 2 µl chemical compounds were added to each well at the designated concentration. Then cells were infected with ZIKV at MOI of 0.05. Ribavirin and DMSO were used as positive and negative control, respectively. After a further incubation for 72 h at 37°C, cells were lysed with 100 μl of lysis buffer (50mM Tris, 150mM NaCl, 1% NP-40, 0.5% sodium deoxycholate, pH 7.4). Cell lysate was subjected to denaturing gel electrophoresis with 10% Bis-Tris Gel. The proteins were transferred onto PVDF membranes (Millipore, USA) and immunoblotted with indicated antibodies. The following antibodies were used for the detection of proteins: Anti-NS2B antibody (GTX133308, 1:1,000, GeneTex), Anti-NS3 antibody(GTX133320, 1:1,000, GeneTex), Anti-NS4A antibody (GTX133704, 1:1,000, GeneTex), Anti-prM antibody, Anti-β actin antibody (mAbcam 8224, 1:5000, Abcam) was used as a loading control. […]\n(§2) Quantification of signals on Western blots was done using the Image pro 10 (Media cybernetics, USA) Imaging and Processing Analysis Software with signaling intensity normalized to loading control. […] Membranes were imaged and quantified in 800 nm channelsin the Odyssey Infrared Imaging System using Odyssey V3.0 software (LI-COR, Lincoln, NE)."}, "ZIKV [5]": {"tested_on": "ZIKV", "assay": "protection of Vero E6 cell viability against ZIKV-induced cytopathic effect (CCK-8)", "assay_type": "cell-based, Zika virus", "conditions": "Vero E6 cells", "protocol": "Cell viability was performed by Cell Counting Kit-8 (CCK-8) (Beyotime, China). Typically, 8×10^4 cells/ml Vero E6 cells were seeded in the wells of 96-well plate at 100 μl/well and grown for 24 h. The compound 1 μl was added to the cells, after which cells were infected with ZIKV at MOI of 0.05. Ribavirin and DMSO were used as positive and negative control, respectively. […] The absorbance at 450 nm was subsequently measured using EnSpire 2300 Multilable Reader (PerkinElmer). The inhibition rate of the tested compounds was calculated with the following equation:\nInhibition rate%=100-[ODtested compound−ODmock−infected cells/ODinfected cells−ODmock−infected cells]×100%"}, "[6]": {"tested_on": "ZIKV polyprotein precursor cleavage by ZIKVpro", "assay": "western blot of viral polyprotein precursor processing in ZIKV-infected Vero E6 cells", "assay_type": "cell-based, Zika virus", "conditions": "especially at 6.25 µM", "protocol": "as §1, §2"}, "ZIKV [7]": {"tested_on": "ZIKV", "assay": "time-of-drug-addition assay (qRT-PCR, Vero E6)", "assay_type": "cell-based, Zika virus", "conditions": "ZP10 25 μM or antibody 0.1 μg/ml, Vero E6, 24 hpi", "protocol": "For the pre-treatment group, Vero E6 cells were seeded 12-well plates (2.5×10^5 cells/well). […] Next, Vero E6 cells were washed with PBS once before the addition of mixture. The 600 μl mixture was added into cells for 1 h at 4°C. […] Infected cells were collected at 24 hpi. The cell lysate was collected for viral RNA copies measurement using qRT-PCR. DMSO was included as negative control. The experiments were performed in triplicate and repeated twice for confirmation."}, "ZIKV [8]": {"tested_on": "ZIKV", "assay": "western blot of viral protein in ZIKV-infected U-87 MG cells", "assay_type": "cell-based, Zika virus", "conditions": "dose-dependent"}, "Vero E6 cells": {"tested_on": "Vero E6 cells", "assay": "cytotoxicity in Vero E6 cells (CCK-8)", "assay_type": "cell-based, African green monkey", "conditions": "0.3125~40 μM"}, "[9]": {"tested_on": "CCCC[C@H](NC(=O)c1ccccc1)C(=O)N[C@@H](CCCCN)C(=O)N[C@@H](CCCCN)C(=O)N[C@@H](CCCNC(=N)N)C(=O)Nc1ccc2c(C)cc(=O)oc2c1", "assay": "purified protein, by the assay type", "conditions": "other: substrate 5 to 320 µM, 150 nM protease, 37 °C, pH 7.5", "procedure": "Proteolytic activity of NS2B-NS3 protease was measured using benzoyl-norleucine-lysine-lysine-arginine 7-amino-4-methylcoumarine (Bz-nKKR-AMC). Bz-nKKR-AMC substrate with starting concentration of 300 μM was serially diluted two times in reaction buffer (50 mM Tris-HCl, pH 7.5, 150 mM NaCl) and added to 96-well black plate (Costar, USA) with 150 nM protein diluted in the same buffer. For kinetics measurements, fluorescence readings were measured at 30 s interval for 5 min using Enspire (Perkin Elmer) at excitation wavelength (λex) at 360 nm and emission wavelength (λem) at 460 nm. Assays were carried out as triplicates at 37 °C. Michaelis-Menten constant (Km) was calculated by graphpad prism5.0."}},
  "note": "Entries after “also recorded” stand apart in the source; their conditions may differ. Like-named read-outs stand apart in the source and are kept apart here.",
  "data": [
    {"molecule": "O=C1c2c(O)ccc([N+](=O)[O-])c2C(=O)c2c([N+](=O)[O-])ccc(O)c21", "note": "[ARDP006]", "values": [
      {"measurement": "EC50", "setting": "dengue virus", "value": 4.2, "unit": "µM"},
      {"measurement": "IC50", "setting": "viral proteinase NS2B/3", "value": 432, "unit": "µM"}
    ]},
    {"molecule": "O=c1cc(-c2ccc(O)cc2)oc2cc(O)cc(O)c12", "note": "[Apigenin]", "values": [
      {"measurement": "IC50", "setting": "ZIKVpro; ref Roy et al.", "value": 56.3, "unit": "µM"}
    ]},
    {"molecule": "O=c1c(O)c(-c2cc(O)c(O)c(O)c2)oc2cc(O)cc(O)c12", "note": "[Myricetin, myricetin]", "values": [
      {"measurement": "IC50", "setting": "ZIKVpro; ref Lim et al.", "value": 22, "unit": "µM"},
      {"measurement": "IC50", "setting": "ZIKVpro; ref Roy et al.", "value": 1.3, "unit": "µM"},
      {"measurement": "IC50", "setting": "[1]", "value": 48.7, "unit": "µM"}
    ]},
    {"molecule": "O=C(OC[C@H]1O[C@@H](OC(=O)c2cc(O)c(O)c(OC(=O)c3cc(O)c(O)c(O)c3)c2)[C@H](OC(=O)c2cc(O)c(O)c(OC(=O)c3cc(O)c(O)c(O)c3)c2)[C@@H](OC(=O)c2cc(O)c(O)c(OC(=O)c3cc(O)c(O)c(O)c3)c2)[C@@H]1OC(=O)c1cc(O)c(O)c(OC(=O)c2cc(O)c(O)c(O)c2)c1)c1cc(O)c(O)c(OC(=O)c2cc(O)c(O)c(O)c2)c1", "note": "[ZP3, tannic acid]", "values": [
      {"measurement": "binding to ZIKVpro in Octet assay", "setting": "[2]", "value": "direct binding"},
      {"measurement": "Response (Octet binding assay)", "setting": "[2]", "value": 0.1091}
    ]},
    {"molecule": "Cc1cc2c(C(C)C)c(O)c(O)c(C=O)c2c(O)c1-c1c(C)cc2c(C(C)C)c(O)c(O)c(C=O)c2c1O", "note": "[ZP4]", "values": [
      {"measurement": "Response (Octet binding assay)", "setting": "[2]", "value": -0.046},
      {"measurement": "inhibition at 20 µM", "setting": "[1]", "value": 59.7, "unit": "%"}
    ]},
    {"molecule": "CCCCCCCCCCCCCc1cccc(O)c1C(=O)O", "note": "[ZP9]", "values": [
      {"measurement": "Response (Octet binding assay)", "setting": "[2]", "value": -0.0005},
      {"measurement": "IC50", "setting": "[1]", "value": 1.42, "unit": "µM"},
      {"measurement": "inhibition at 20 µM", "setting": "[1]", "value": 82.2, "unit": "%"}
    ]},
    {"molecule": "O=C(OC1Cc2c(O)cc(O)cc2OC1c1cc(O)c(=O)c2c(O)c(O)cc(C3Oc4cc(O)cc(O)c4CC3OC(=O)c3cc(O)c(O)c(O)c3)c2c1)c1cc(O)c(O)c(O)c1", "note": "(stereo not shown) [ZP10, theaflavin-3,3’-digallate]", "values": [
      {"measurement": "viral RNA copy numbers", "setting": "ZIKV [3]", "value": "markedly reduced"},
      {"measurement": "NS3 protein expression", "setting": "ZIKV [4]", "value": "markedly reduced"},
      {"measurement": "ZIKV-induced CPE (cell morphology)", "setting": "ZIKV [5]; 72 hpi, ZP10 6.25 µM to 25.0 µM", "value": "attenuated to a large extent"},
      {"measurement": "EC50", "setting": "ZIKV [5]; Zika virus, Vero C1008, MOI 0.05, CCK-8 read-out, read-out: EC50 of inhibition of ZIKV replication (CPE protection)", "value": 7.65, "unit": "µM"},
      {"measurement": "cleavage processing of polyprotein precursor (PP)", "setting": "[6]", "value": "impaired cleavage processing of PP"},
      {"measurement": "effect on ZIKV entry / replication when added before or after virus adsorption (0–1 hpi)", "setting": "ZIKV [7]", "value": "no effect of ZP10 on ZIKV entry"},
      {"measurement": "viral protein expression (NS3 and envelope)", "setting": "ZIKV [8]", "value": "considerably reduces"},
      {"measurement": "cytotoxicity (cell viability, CCK-8)", "setting": "Vero E6 cells", "value": "minor cytotoxicity up to 40 μM; also recorded: low cytotoxicity"}
    ]},
    {"molecule": "ZIKV NS2B-NS3 protease (ZIKVpro) (Zika virus ZIKV/H. sapiens/FrenchPolynesia/10087PF/2013)", "values": [
      {"measurement": "Km", "setting": "[9]", "value": 30.51, "unit": "µM"}
    ]},
    {"molecule": "merbromin [ZP1]", "values": [
      {"measurement": "binding to ZIKVpro in Octet assay", "setting": "[2]", "value": "direct binding"},
      {"measurement": "Response (Octet binding assay)", "setting": "[2]", "value": 1.0863},
      {"measurement": "IC50", "setting": "[1]", "value": 9.18, "unit": "µM"}
    ]}
  ]
}
